Measured values: patent US4255575A, “2-Hydroxy-5-(1-hydroxy-2-piperazinylethyl)-benzoic acid derivatives” (priority 1979, dated 1981)

Columns and labels:
α-adrenergic receptor [1] = assay: α-adrenergic receptor blocking activity in vitro, isolated rabbit aortic strip, norepinephrine agonist; type: cell-based
Description: (§1) α-Adrenergic receptor blocking activity is determined in vitro by performing cumulative dose-response experiments in the isolated rabbit aortic strip preparation using norepinephrine as the agonist. The contractile response of the rabbit strip preparation in the presence of logarithmically increasing concentrations of the compounds being tested are expressed as percent of the maximal attainable […]. Relative antagonistic potency is expressed as a pA2 value.

β-adrenergic receptor = target: T1, β-adrenergic receptor (Cavia porcellus, UniProt H0W3H1); assay: β-adrenergic receptor blocking activity in vitro, isolated guinea pig atria, isoproterenol agonist; type: cell-based; conditions: for Kb: read-out: pA2 β (converted)
T1 construct: isolated guinea pig atria preparation; from tissue; host or cells: isolated guinea pig atria
Description: as §1
β-Adrenergic receptor blocking activity is determined in vitro by performing cumulative dose-response experiments in the isolated guinea pig atria preparation using isoproterenol as the agonist. The response (increase in rate) of the guinea pig atria preparation in the presence of logarithmically increasing concentrations of the compounds being tested are expressed as percent of the maximal attainable response. Relative antagonistic potency is expressed as a pA2 value, as defined above.

guinea pig ileum = assay: direct spasmolytic activity in vitro, isolated guinea pig ileum, barium chloride agonist; type: cell-based
Description: as §1, with “value. […] Direct spasmolytic activity is determined in vitro by performing cumulative dose response experiments in the isolated guinea pig ileum preparation using barium chloride as the agonist. The contractile response of the guinea pig ileum preparation in the presence of logarithmically increasing concentrations of the compounds being tested are expressed as percent of the maximal attainable response. Relative antagonistic potency is expressed as a pA2 value, as defined above.” for “value.”

α-adrenergic receptor [2] = assay: α-adrenergic receptor blocking activity in vivo, anesthetized dog, phenylephrine agonist; conditions: iv
Description: (§2) α-Adrenergic receptor blocking activity is determined in vivo by performing cumulative dose-response experiments in the anesthetized dog using phenylephrine as the agonist. The increase in diastolic blood pressure produced by phenylephrine is determined in the absence and again in the presence of logarithmically increasing doses of the test compound. Relative antagonistic potency is expressed as DR10. DR10 is defined as the negative logarithm of the dose of the antagonist which increased by 10 times the dose of agonist necessary to produce 50% of the maximal attainable response.

[3] = tested on: β-adrenergic receptor (β1); assay: β-adrenergic receptor blocking activity in vivo, isoproterenol agonist, increase in cardiac rate (β1); conditions: anesthetized dog, iv
Description: as §2, with “response. […] Two responses, increase in cardiac rate (β1) and decrease in diastolic blood pressure (β2) are measured.” for “response.”

[4] = tested on: β-adrenergic receptor (β2); assay: β-adrenergic receptor blocking activity in vivo, isoproterenol agonist, decrease in diastolic blood pressure (β2); conditions: anesthetized dog, iv
Description: as §2, with “response. […] Two responses, increase in cardiac rate (β1) and decrease in diastolic blood pressure (β2) are measured.” for “response.”

[5] = tested on: spontaneously hypertensive rats (SHR); assay: antihypertensive activity in spontaneously hypertensive rats, systolic blood pressure; type: in vivo, rat; conditions: 50 mg/kg per os
Description: Antihypertensive activity is determined in spontaneously hypertensive rats (SHR) of the Okomoto-Aoki strain. Systolic blood pressure of the SHR is measured from the caudal artery by means of an indirect method utilizing a photocell transducer/tail cuff occluder system. Time response relationships are determined for each compound following an oral dose of 50 mg/kg. Data are expressed as mm of Hg decrease from control values. Statistical significance is determined using a 2 tailed "t" test comparing drug treatment response values to those obtained from concurrent vehicle treated animals.

T1 sequence (H0W3H1 1-470): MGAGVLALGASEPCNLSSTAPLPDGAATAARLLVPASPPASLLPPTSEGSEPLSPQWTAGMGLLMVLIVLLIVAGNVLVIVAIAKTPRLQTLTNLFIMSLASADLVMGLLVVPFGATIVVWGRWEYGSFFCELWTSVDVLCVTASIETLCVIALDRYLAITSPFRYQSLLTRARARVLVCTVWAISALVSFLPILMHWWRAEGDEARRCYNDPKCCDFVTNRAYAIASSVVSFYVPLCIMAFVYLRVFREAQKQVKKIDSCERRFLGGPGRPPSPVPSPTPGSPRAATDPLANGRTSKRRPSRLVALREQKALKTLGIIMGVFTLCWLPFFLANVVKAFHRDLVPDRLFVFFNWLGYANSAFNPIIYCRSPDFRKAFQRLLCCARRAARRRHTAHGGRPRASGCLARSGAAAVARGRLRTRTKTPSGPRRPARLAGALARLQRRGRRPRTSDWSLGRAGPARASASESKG

Row | Structure (SMILES) | Kb (β-adrenergic receptor) [nM] | pA2 β (β-adrenergic receptor) | pA2 α (α-adrenergic receptor [1]) | pA2 BaCl2 (guinea pig ileum) | DR10 (α) (α-adrenergic receptor [2]) [mg/kg iv] | DR10 (β1), increase in cardiac rate [3] [mg/kg iv] | DR10 (β2), decrease in diastolic blood pressure [4] [mg/kg iv] | Fall in Blood Pressure After: 1 hour [5] [mm Hg] | Fall in Blood Pressure After: 4 hours [5] [mm Hg]
1 | CCOc1ccc(C(O)CN2CCN(c3ccccc3)CC2)cc1C(N)=O.Cl (stereo not drawn) [Compound 13, 2-ethoxy-5-[1-hydroxy-2-(4-phenyl-1-piperazinyl)ethyl]benzamide monohydrochloride] | 5370 | – | 6.27 | 4.67 | – | – | – | – | –
2 | CC(CCc1ccccc1)NC(C)C(O)c1ccc(O)cc1 (stereo not drawn) [nylidrine, reference compound] | – | stimulant | – | – | – | – | – | – | –
3 | Cc1ccccc1N1CCN(CC(O)c2ccc(O)c(C(=O)NCC(C)(C)C)c2)CC1.Cl (stereo not drawn) [Compound 11, N-(2,2-dimethylpropyl)-2-hydroxy-5-[1-hydroxy-2-[4-(2-methylphenyl)-1-piperazinyl]ethyl]benzamide monohydrochloride] | 468 | – | 7.21 | 6.65 | – | – | – | 41 | 32
4 | Cl.NC(=O)c1cc(C(O)CN2CCN(c3cccc(C(F)(F)F)c3)CC2)ccc1O (stereo not drawn) [Compound 3, 2-hydroxy-5-[1-hydroxy-2-[4-[3-(trifluoromethyl)phenyl]-1-piperazinyl]ethyl]benzamide monohydrochloride] | 126 | – | 6.33 | 5.74 | – | – | – | – | –
5 | Cc1ccc(N(CC2=NCCN2)c2cccc(O)c2)cc1 [phentolamine, reference compound] | – | – | – | – | 2.65 | – | – | – | –
6 | Cc1ccccc1N1CCN(CC(O)c2ccc(O)c(-c3nnn[nH]3)c2)CC1.Cl.O (stereo not drawn) [Compound 14, α-(4-Hydroxy-3-1H-tetrazol-5-ylphenyl)-4-(2-methylphenyl)-1-piperazineethanol Monohydrochloride Monohydrate] | 724 | – | 7.56 | < 4 | – | – | – | 48 | –
7 | CNC(=O)c1cc(C(O)CN2CCN(c3ccc(OC)cc3)CC2)ccc1O.Cl.O (stereo not drawn) [Compound 9, 2-hydroxy-5-[1-hydroxy-2-[4-(4-methoxyphenyl)-1-piperazinyl]ethyl]-N-methylbenzamide monohydrochloride hydrate] | 6760 | – | 5.47 | 4.82 | – | – | – | – | –

Second part, led by results:

Row | Kb (β-adrenergic receptor) [nM] | pA2 β (β-adrenergic receptor) | Structure (SMILES) | pA2 α (α-adrenergic receptor [1]) | pA2 BaCl2 (guinea pig ileum) | DR10 (α) (α-adrenergic receptor [2]) [mg/kg iv] | DR10 (β1), increase in cardiac rate [3] [mg/kg iv] | DR10 (β2), decrease in diastolic blood pressure [4] [mg/kg iv] | Fall in Blood Pressure After: 1 hour [5] [mm Hg] | Fall in Blood Pressure After: 4 hours [5] [mm Hg]
8 | 4270 | – | Cl.NC(=O)c1cc(C(O)CN2CCN(c3ccccn3)CC2)ccc1O.O (stereo not drawn) [Compound 8, 2-hydroxy-5-[1-hydroxy-2-[4-(2-pyridinyl)-1-piperazinyl]ethyl]benzamide monohydrochloride hydrate] | 6.08 | 3.90 | – | – | – | – | –
9 | 200 | – | Cc1ccccc1N1CCN(CC(O)c2ccc(O)c(C(N)=O)c2)CC1.Cl (stereo not drawn) [Compound 2, 2-hydroxy-5-[1-hydroxy-2-[4-(2-methylphenyl)-1-piperazinyl]ethyl]benzamide monohydrochloride] | 7.57 | 5.73 | 1.09 | 15.3 | > 10 | 48 | 37
10 | – | stimulant | Cl.NC(=O)c1cc(C(O)CN2CCN(c3ccccc3)CC2)ccc1O.O (stereo not drawn) [Compound 6, 2-hydroxy-5-[1-hydroxy-2-(4-phenyl-1-piperazinyl)ethyl]benzamide monohydrochloride hydrate] | 7.04 | 4.19 | – | – | – | – | –
11 | > 10000 | – | COc1ccc(C(O)CN2CCN(c3ccccc3)CC2)cc1C(N)=O.Cl (stereo not drawn) [Compound 12, 5-[1-hydroxy-2-(4-phenyl-1-piperazinyl)ethyl]-2-methoxybenzamide monohydrochloride] | 6.54 | 4.19 | – | – | – | 33 | 25
12 | 162 | – | COC(=O)c1cc(C(O)CN2CCN(c3ccccc3C)CC2)ccc1O.Cl (stereo not drawn) [Compound 1, methyl 2-hydroxy-5-[1-hydroxy-2-[4-(2-methylphenyl)-1-piperazinyl]ethyl]benzoate hydrochloride] | 7.45 | 6.06 | – | – | – | – | –
13 | 676 | – | Cl.NC(=O)c1cc(C(O)CN2CCN(c3ccc(Cl)cc3)CC2)ccc1O.O (stereo not drawn) [Compound 5, 5-[2-[4-(4-chlorophenyl)-1-piperazinyl]-1-hydroxyethyl]-2-hydroxybenzamide monohydrochloride, monohydrate] | 6.87 | 4.58 | – | – | – | 49 | 56
14 | – | stimulant | CNC(=O)c1cc(C(O)CN2CCN(c3ccccc3OC)CC2)ccc1O.Cl.O (stereo not drawn) [Compound 10, 2-hydroxy-5-[1-hydroxy-2-[4-(2-methoxyphenyl)-1-piperazinyl]ethyl]-N-methylbenzamide monohydrochloride monohydrate] | 7.95 | 5.02 | – | – | – | 44 | 52
15 | 363 | – | COc1ccccc1N1CCN(CC(O)c2ccc(O)c(C(N)=O)c2)CC1.Cl (stereo not drawn) [Compound 7, 2-hydroxy-5-[1-hydroxy-2-[4-(2-methoxyphenyl)-1-piperazinyl]ethyl]benzamide monohydrochloride] | 7.42 | 4.87 | – | – | – | 45 | 35
16 | 1450 | – | COc1ccc(N2CCN(CC(O)c3ccc(O)c(C(N)=O)c3)CC2)cc1.Cl.Cl (stereo not drawn) [Compound 4, 2-hydroxy-5-[1-hydroxy-2-[4-(4-methoxyphenyl)-1-piperazinyl]ethyl]benzamide dihydrochloride] | 6.13 | < 4.28 | – | – | – | – | –
